The test system of data set [1] is RCC4. Put plainly: 3H-2-deoxyglucose uptake, RCC4. Conditions: 3H-2-deoxyglucose, two days of treatment, 5 μM. It counts as cell-based, human. As for the experimental part: One hundred thousand cells were plated into 6-well plates. The following day, the cells were treated with vehicle or drug and incubated for the indicated time. Cells were washed twice in phosphate buffered saline and low glucose media was added for 30 minutes. Cells were then incubated with 0.5 microCi of tritiated-2-deoxyglucose and incubated for an hour at 37° C. Cells were washed twice in PBS and then lysed in 0.2 N NaOH and 0.2% SDS. Lysates were transferred to scintillation tubes with scintillation fluid and quantified by scintillation counter.
One hundred thousand cells were plated per well in a six-well plate. The next day, cells were treated with the indicated concentration of drug and incubated for the indicated time. Cells were then washed twice with phosphate-buffered saline, incubated in low-glucose medium for 30 minutes, and ^3H-2-deoxyglucose (0.5 μCi) was added in 1 ml of glucose-free media for an additional hour. Cells were washed twice in PBS and lysed (0.2 N NaOH and 0.2% sodium dodecyl sulfate). Glucose uptake was quantified with a scintillation counter.

The subject of data set [2] is 786-O. In words: FDG-PET imaging of 786-O xenografts. Conditions: 786-O xenografts in CD-1 nude mice, three daily i.p. doses (11.6 mg/kg). It counts as in vivo, mice. On the procedure: FIG. 5A-E In vivo monitoring and efficacy of compound 47. […] 786-O, a renal clear cell carcinoma with a naturally occurring VHL mutation, were implanted subcutaneously into the flanks of CD-1 nude mice. Representative axial cross section of a mouse prior to treatment (left) and following three daily i.p. injections with compound 85 (11.6 mg/kg)(right), overlaid over CT scan. (B) Quantitatively, compound 85 inhibits FDG-PET in mouse xenografts. Quantification of FDG-PET inhibition by compound 85 as determined by the 90th percentile ROI for percent injected dose per gram (% ID/g) (*p<0.01). (C) Compound 85 is not toxic to normal tissues. (a, b) Kidney of vehicle- and compound 85-treated animals. (c, d) Spleen of vehicle- and compound 85-treated animals. (e, f) Liver of vehicle- and compound 85-treated animals. (g, h) Heart of vehicle- and compound 85-treated animals. (i, j) Salivary gland of vehicle- and compound 85-treated animals. (k, l) Brain of vehicle- and compound 85-treated animals. Scale bar represents 100 microns. (D) Compound 85 delays tumor growth. 786-O tumor-bearing mice were treated daily with vehicle or compound 85 (11.6 mg/kg for the first 3 days, followed by 7.8 mg/kg for the next week)(*p<0.005). (E) Compound 85 delays tumor growth in cells that have lost VHL. ACHN cells expressing a short hairpin RNA to VHL were implanted subcutaneously into the flanks of immunocompromised mice. Once tumors reached an average of >20 mm^3, mice were treated daily with compound 85 or vehicle (*p<0.05). All error bars represent the standard error of the mean.
In Vivo Studies and Immunohistochemistry. All experiments were approved by Stanford's Administrative Panel on Laboratory Animal Care (APLAC) and in accordance with both institutional and national guidelines. Five million cells were implanted subcutaneously into the flanks of nude mice (4-6 weeks old)(Charles River Laboratories). Tumors were measured with calipers. Volume was calculated by the following formula: width^2×0.5 length. […]

In data set [3] the target is T1, GLUT1 (Homo sapiens, UniProt P11166).
T1 construct: endogenous in cells; host or cells: RCC4 and RCC4/VHL cell lysates
T1 sequence (P11166 1-492): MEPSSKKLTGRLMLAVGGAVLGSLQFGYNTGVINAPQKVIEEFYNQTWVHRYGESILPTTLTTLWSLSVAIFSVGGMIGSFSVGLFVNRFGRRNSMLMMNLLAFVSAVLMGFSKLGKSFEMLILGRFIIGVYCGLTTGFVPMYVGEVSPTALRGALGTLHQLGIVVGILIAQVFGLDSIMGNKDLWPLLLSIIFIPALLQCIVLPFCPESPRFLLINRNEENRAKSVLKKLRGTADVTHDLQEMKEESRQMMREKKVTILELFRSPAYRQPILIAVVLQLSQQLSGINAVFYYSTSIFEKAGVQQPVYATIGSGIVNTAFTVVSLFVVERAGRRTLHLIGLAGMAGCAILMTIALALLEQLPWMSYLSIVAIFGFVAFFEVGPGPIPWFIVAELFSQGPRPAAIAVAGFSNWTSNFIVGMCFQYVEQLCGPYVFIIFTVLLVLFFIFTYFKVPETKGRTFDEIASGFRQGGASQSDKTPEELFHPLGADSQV
Put plainly: Affi-gel affinity binding of GLUT1 from cell lysates. Conditions: salt elution, immunoblot; for binding of GLUT1 to Affi-gel immobilized compound, RCC4 lysates: RCC4 cell lysates. As for the experimental part:
All cells were grown in DMEM+10% FCS. ACHN and ACHN shVHL were a kind gift from George V. Thomas (UCLA). HIF overexpressing clones were described previously. Transfection of RNA oligos were performed with DnarmaFECT Reagent 1 (Dharmcon), according to manufacturer's directions. ON-TARGETplus SMART pools against HIF-1β/ARNT were purchased from Dharmacon. Glut1 was detected with anti-GLUT1 antibody from NeoMarkers/LabVision/Fisher. Pyruvate/lactate levels and hexokinase activity were both measured by fluorometric assay (BioVision and Sigma-Aldrich, respectively). ATP levels were measured by bioluminescence assay (ATP Determination Kit from Molecular Probes/Invitrogen). In vitro kinase activities were performed by Millipore KinaseProfiler. Affi-Gel 10 (BioRad) activated affinity media was coupled to analogs to generate immobilized affinity linkers.
We next wanted to investigate the differential glucose uptake between RCCs with and without VHL treated with compound 47 that subsequently lead to the selective death of VHL-deficient cells. We first examined the message levels of the two main glucose transporters, GLUT1 and GLUT2 by quantitative real-time PCR. GLUT1 is an inducible, high-affinity glucose transporter, while GLUT2 is the glucose transporter responsible for basal glucose uptake. Other family members, such as GLUT3 and GLUT4, are not expressed in renal cells. GLUT1 was highly expressed in cells lacking VHL, while cells with VHL had very low levels of GLUT1 (FIG. 3I). In contrast, GLUT2 was highly expressed in cells with wild-type VHL. Cells deficient in VHL had very low levels of GLUT2 that could barely be detected (FIG. 3J). […] In order to more directly test this, we performed binding assays to see whether compound 47 was directly interacting with GLUT1. An analog of compound 47, compound 116 was synthesized and linked to an immobilized linker (Affi-gel 10). Cell lysates from both RCC4 and RCC4/VHL were incubated with the Affi-gel-compound 47. […]
(A western blot detects proteins with antibodies after separation by electrophoresis.)

The subject of data set [4] is RCC4. In words: XTT IC50 / viability assay, RCC4 cells. It counts as cell-based, human. The settings on record: Homo sapiens, RCC4, 96 h; XTT assay, four days. In outline:
(§1)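 RCC4 parental and VHL-reintroduced RCC4/VHL cells (DMEM, 10% FCS) treated with serially diluted drug for four days. Viability by XTT (0.3 mg/mL) with N-methyl dibenzopyrazine methyl sulfate, 1–2 h at 37 °C, absorbance 450 nm; IC50 by linear interpolation.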

Data set [5] deals with RCC4/VHL. Put plainly: XTT IC50 assay, selectivity RCC4 versus RCC4 with VHL-reintroduced. It is filed as cell-based, human. The settings on record: selectivity ratio of XTT IC50 values, RCC4 vs RCC4/VHL. In short, it runs like this: as §1

Structures are written as SMILES.

`Cc1cccc(Nc2nc(-c3ccncc3)cs2)c1` [4-(pyridin-4-yl)-N-(m-tolyl)thiazol-2-amine, reference compound]: the “glucose uptake in VHL-deficient RCC4 cells” value in data set [1] is on record as “did not decrease glucose uptake”. Besides, in data set [2], the “glucose uptake within tumors by FDG-PET” value is reported as “did not have a decrease in glucose uptake”.

With `Cc1cccc(Nc2nc(-c3ccnc(-c4cn(CCCCCCN)nn4)c3)cs2)c1` [4-{2-[1-(6-aminohexyl)-1H-1,2,3-triazol-4-yl]-4-pyridinyl}-N-(3-methylphenyl)-1,3-thiazol-2-amine, reference compound], the “binding of GLUT1 to Affi-gel immobilized compound, RCC4/VHL lysates” value in data set [3] (RCC4/VHL cell lysates) was “did not bind”. In addition, the “binding of GLUT1 to Affi-gel immobilized compound, RCC4 lysates” value in data set [3] was “did not bind”.

For orientation: IC50 means the midpoint of a concentration-inhibition curve. Regarding `NCCOCCOCCOCCOCCOCCOCC#Cc1ccc(S(=O)(=O)NCc2ccc(C(=O)Nc3cccnc3)cc2)cc1` [Example 100, 4-[({[4-(21-Amino-4,7,10,13,16,19-hexaoxahenicos-1-yn-1-yl)phenyl]sulfonyl}amino)methyl]-N-(3-pyridinyl)benzamide], the IC50 in data set [4] was 1 to 20 µM. Also, the “Ratio (RCC4:RCC/VHL)” value in data set [5] was “a (“a” reflects a ratio of RCC4/RCC-VHL+ ranging from 1 to 10)”. The “binding of GLUT1 to Affi-gel immobilized compound, RCC4 lysates” value in data set [3] is “bound”.

Usually melting point stands for the temperature, or range, at which the solid turns liquid. Turning to `CC(C)(C)c1ccc(S(=O)(=O)NCc2ccc(C(=O)Nc3cccnc3[N+](=O)[O-])cc2)cc1` [Example 116, 4-({[(4-tert-Butylphenyl)sulfonyl]amino}methyl)-N-(2-nitro-3-pyridinyl)benzamide], the melting point was 191 to 193 °C. Further, the IC50 in data set [4] was greater than 20 µM.

The compound `CC(C)(C)c1ccc(S(=O)(=O)NCc2ccc(C(=O)Nc3ccc(C(F)(F)F)nc3)cc2)cc1` [Example 118, 4-({[(4-tert-Butylphenyl)sulfonyl]amino}methyl)-N-[6-(trifluoromethyl)-3-pyridinyl]benzamide] displayed a melting point of 249 to 252 °C. In data set [4], this compound gave an IC50 greater than 20 µM.

`CC(=O)Nc1ccc(NC(=O)c2ccc(CNS(=O)(=O)c3ccc(C(C)(C)C)cc3)cc2)cn1` [Example 119, N-[6-(Acetylamino)-3-pyridinyl]-4-({[(4-tert-butylphenyl)sulfonyl]amino}methyl)benzamide] had a melting point of 240 to 243 °C. The compound further showed a half-inhibitory concentration (IC50) in data set [4] greater than 20 µM.

For the compound `CC(C)(C)c1ccc(S(=O)(=O)NCc2ccc(C(=O)Nc3ccc(F)nc3)cc2)cc1` [Example 120, 4-({[(4-tert-Butylphenyl)sulfonyl]amino}methyl)-N-(6-fluoro-3-pyridinyl)benzamide], the melting point lay in the range of 254 to 257 °C. The same compound returned an IC50 in data set [4] greater than 20 µM.

With `CC(C)(C)c1ccc(S(=O)(=O)NCc2ccc(C(=O)Nc3cncc(F)c3)cc2)cc1` [Example 121, 4-({[(4-tert-Butylphenyl)sulfonyl]amino}methyl)-N-(5-fluoro-3-pyridinyl)benzamide], the melting point fell in the range of 214 to 217 °C. This compound came in with an IC50 in data set [4] greater than 20 µM.

`COc1ccncc1NC(=O)c1ccc(CNS(=O)(=O)c2ccc(C(C)(C)C)cc2)cc1` [Example 124, 4-({[(4-tert-Butylphenyl)sulfonyl]amino}methyl)-N-(4-methoxy-3-pyridinyl)benzamide] displayed a melting point of 231 to 233 °C. For the same compound, the IC50 in data set [4] is greater than 20 µM.

Turning to `CC(C)(C)c1ccc(S(=O)(=O)NCc2ccc(C(=O)Nc3ccc(Br)nc3)cc2)cc1` [Example 125, N-(6-Bromo-3-pyridinyl)-4-({[(4-tert-butylphenyl)sulfonyl]amino}methyl)benzamide], the melting point was 242 to 244 °C. The IC50 in data set [4] is greater than 20 µM.

Compound `O=C(Nc1cccnc1)c1ccc(CNS(=O)(=O)c2ccc(-c3cccc(C(F)(F)F)c3)cc2)cc1` [Example 134, N-(3-Pyridinyl)-4-[({[3′-(trifluoromethyl)[1,1′-biphenyl]-4-yl]sulfonyl}amino)methyl]benzamide] yielded a melting point of 227 to 229 °C. Besides, the IC50 in data set [4] was greater than 20 µM.

`CCCN(Cc1ccc(C(=O)Nc2cccnc2)cc1)S(=O)(=O)c1ccc(C(C)(C)C)cc1` [Example 140, 4-{[[(4-tert-Butylphenyl)sulfonyl](propyl)amino]methyl}-N-(3-pyridinyl)benzamide] yielded a melting point of 177 to 179 °C. Also, the IC50 in data set [4] is greater than 20 µM.

Source of the values: patent US20120225862A1, “HETEROARYL BENZAMIDES, COMPOSITIONS AND METHODS OF USE” (AUCKLAND UNIVSERVICES LIMITED, priority 2009, published 2012).
